Read-outs that look alike come from different tables or passages of the source.
Columns and labels:
Myzus persicae = assay: Myzus test (spray treatment); assay type: in vivo; details: 120 h, after 5 days at a concentration of 500 g/ha, read-out: death rate
Procedure: After the desired time the death rate was determined in %, where 100% means that all aphids were killed; 0% means that no aphids were killed.

Aphis gossypii = Aphis gossypii test (cotton leaf immersion); assay type: in vivo; details: 144 h, after 6 days at a concentration of 100 ppm, cotton leaves (Gossypium hirsutum), read-out: death rate
Procedure: After the desired time the death rate was determined in %, where 100% means that all aphids were killed; 0% means that no aphids were killed

[1] = China cabbage leaves (Brassica pekinensis)

| Structure (SMILES) | pest or weed control at 500 g/ha (Myzus persicae; [1]) [%] | pest or weed control at 500 g/ha (Myzus persicae; compounds of structure (II-b)) [%] | pest or weed control at 100 ppm (Aphis gossypii) [%] |
| --- | --- | --- | --- |
| Cc1cc(CNC(=O)c2cnccc2C(F)(F)F)nc(C)n1 [II-38, N-(2,6-Dimethylpyrimidin-4-ylmethyl)-4-trifluoromethyl nicotinamide] | ≥ 80 | ≥ 90 |  |
| CO/N=C/c1nc(-c2cnccc2C(F)(F)F)n2ccccc12 [Example 6, 1-methoximinomethyl-3-(4-trifluoromethylpyridin-3-yl)-imidazo[1,5-a]-pyridine] | ≥ 80 |  | ≥ 80 |
| Cc1cc(C)nc(CNC(=O)c2cnccc2C(F)(F)F)n1 [II-11, N-(4,6-Dimethylpyrimidin-2-ylmethyl)-4-trifluoromethyl-nicotinamide] |  | ≥ 90 |  |
| O=Cc1nc(-c2cnccc2C(F)(F)F)n2ccccc12 [Example 5, 3-(4-trifluoromethylpyridin-3-yl)-imidazo[1,5-a]pyridine-1-carboxaldehyde] | ≥ 80 |  | ≥ 80 |
| FC(F)(F)c1ccncc1-c1nc(/C=C/c2ccccc2)c2ccccn12 [Example 127, 1-(phenylvinylidene)-3-(4-Trifluoromethylpyridin-3-yl)-imidazo[1,5-a]-pyridine] | ≥ 80 |  | ≥ 80 |
| FC(F)(F)c1ccncc1-c1nc(-c2cccc(Cl)c2)c2ccccn12 [Example 7, 1-(3-chlorophenyl)-3-(4-trifluoromethylpyridin-3-yl)-imidazo[1,5-a]-pyridine] | ≥ 80 |  |  |
| FC(F)(F)c1cc(Cl)c2c(Cl)nc(-c3cnccc3C(F)(F)F)n2c1 [Example 38] | ≥ 80 |  | ≥ 80 |
| FC(F)(F)c1ccncc1-c1ncc2ccccn12 [Example 1, 3-(4-trifluoromethylpyridin-3-yl)-imidazo[1,5-a]pyridine] | ≥ 80 |  | ≥ 80 |
| Cc1cnc(CNC(=O)c2cnccc2C(F)(F)F)cn1 [II-29] |  | ≥ 90 |  |
| FC(F)(F)c1ccncc1-c1nc(CN(Cc2ccccc2)Cc2ccccc2)c2ccccn12 [Example 124, 1-(dibenzylaminomethyl)-3-(4-trifluoromethylpyridin-3-yl)-imidazo[1,5-a]pyridine] | ≥ 80 |  | ≥ 80 |
| O=C(O)c1nc(-c2cnccc2C(F)(F)F)n2ccccc12 [Example 126, 3-(4-trifluoromethylpyridin-3-yl)-imidazo[1,5-a]pyridine-1-carboxylic acid] | ≥ 80 |  | ≥ 80 |
| FC(F)(F)c1ccncc1-c1nc(C#Cc2ccccc2)c2ccccn12 [Example 8, 1-(phenylethynyl)-3-(4-trifluoromethylpyridin-3-yl)-imidazo[1,5-a]-pyridine] | ≥ 80 |  | ≥ 80 |
| FC(F)(F)c1ccncc1-c1nc(Br)c2ccccn12 [Example 3, 1-bromo-3-(4-trifluoromethylpyridin-3-yl)-imidazo[1,5-a]pyridine] | ≥ 80 |  |  |
| O=C(NCc1ncccn1)c1cnccc1C(F)(F)F [II-27, N-Pyrimidin-2-ylmethyl-4-trifluoromethyl-nicotinamide] |  | ≥ 90 |  |
| FC(F)(F)c1ccncc1-c1nc(Cl)c2ccccn12 [Example 4, 1-chloro-3-(4-trifluoromethylpyridin-3-yl)-imidazo[1,5-a]pyridine] | ≥ 80 |  | ≥ 80 |
| CSc1nc(-c2cnccc2C(F)(F)F)n2ccccc12 [Example 128] | ≥ 80 |  |  |

From patent US20080293674A1, “Azinyl Imidazoazine and Azinyl Carboxamide” (priority 2004, published 2008)
